From patent publication US11384055B2 (BIOMARIN PHARMACEUTICAL INC., priority 2017, dated 2022)

Molecular target: T1, Human GO (Homo sapiens, UniProt Q9UJM8)
T1 construct: purchased Novus Biologicals NBP1-72412
T1 sequence (Q9UJM8 1-370): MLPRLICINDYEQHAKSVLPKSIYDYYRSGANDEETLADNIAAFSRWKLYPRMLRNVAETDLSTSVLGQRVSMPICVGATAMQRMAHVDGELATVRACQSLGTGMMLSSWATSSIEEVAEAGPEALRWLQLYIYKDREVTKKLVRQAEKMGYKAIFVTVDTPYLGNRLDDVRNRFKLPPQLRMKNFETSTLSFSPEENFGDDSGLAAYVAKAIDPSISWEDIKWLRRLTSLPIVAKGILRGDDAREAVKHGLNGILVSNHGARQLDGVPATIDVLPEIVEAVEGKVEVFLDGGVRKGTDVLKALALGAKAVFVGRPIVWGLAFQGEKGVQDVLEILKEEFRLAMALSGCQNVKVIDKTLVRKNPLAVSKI
Test: GO enzymatic assay (coupled fluorescence/HRP assay, glycolate substrate)
Format: biochemical
Settings: Table 1; read-out: Range (range of IC50 values calculated from the enzymatic assays)
Procedure: Assay 1: GO Enzymatic Assay
GO was incubated with its substrate, glycolate, in 50 mM potassium phosphate buffer, pH 7. […] The enzyme was optimized and the kinetics was determined.
Compound inhibition was determined by adding various concentrations of inhibitors in the GO enzyme assay. The IC50 value for each measured compound was generated from sigmoidal dose-response (variable slope) curves with GraphPad Prism software (GraphPad Software, Inc., San Diego, Calif.) using the percent inhibition of GO activity relative to DMSO control.

SMILES | IC50
O=C(O)c1[nH]nnc1Sc1nc(-c2ccc(Cl)c(Cl)c2)cs1 [Compound 2, 4-((4-(3,4-dichlorophenyl)thiazol-2-yl)thio)-1H-1,2,3-triazole-5-carboxylic acid] | < 100 nM
O=C(O)c1[nH]nnc1Sc1ncc(-c2ccc(Cl)c(Cl)c2)s1 [Compound 3, 4-((5-(3,4-dichlorophenyl)thiazol-2-yl)thio)-1H-1,2,3-triazole-5-carboxylic acid] | < 100 nM
O=C(O)c1[nH]nnc1Sc1ccc(-c2ccc(Cl)cc2)cc1 [Compound 5, 4-((4′-chloro-[1,1′-biphenyl]-4-yl)thio)-1H-1,2,3-triazole-5-carboxylic acid] | < 100 nM
CN1CCN(c2cccc(Sc3[nH]nnc3C(=O)O)c2)CC1 [Compound 6, 5-((3-(4-methylpiperazin-1-yl)phenyl)thio)-1H-1,2,3-triazole-4-carboxylic acid 2,2,2-trifluoroacetate] | > 10000 nM
O=C(O)c1[nH]nnc1Sc1ccc(N2CCCCC2)cc1 [Compound 7, 4-((4-(piperidin-1-yl)phenyl)thio)-1H-1,2,3-triazole-5-carboxylic acid 2,2,2-trifluoroacetate] | 100 to 1000 nM
O=C(O)c1[nH]nnc1Sc1csc(-c2ccc(Cl)c(Cl)c2)n1 [Compound 8, 4-((2-(3,4-dichlorophenyl)thiazol-4-yl)thio)-1H-1,2,3-triazole-5-carboxylic acid] | < 100 nM
O=C(OC1CCC1)c1[nH]nnc1Sc1nc(-c2ccc(Cl)c(Cl)c2)cs1 [Compound 9, cyclobutyl 4-((4-(3,4-dichlorophenyl)thiazol-2-yl)thio)-1H-1,2,3-triazole-5-carboxylate] | > 10000 nM
CN1CCN(c2ccc(Sc3nn[nH]c3C(=O)O)cc2)CC1 [Compound 10, 4-((4-(4-methylpiperazin-1-yl)phenyl)thio)-1H-1,2,3-triazole-5-carboxylic acid] | 1000 to 10000 nM
CC(C)OC(=O)c1[nH]nnc1Sc1nc(-c2ccc(Cl)c(Cl)c2)cs1 [Compound 11, isopropyl 4-((4-(3,4-dichlorophenyl)thiazol-2-yl)thio)-1H-1,2,3-triazole-5-carboxylate] | > 10000 nM
O=C(O)c1[nH]nnc1Sc1ccc(-c2ccc(Br)cc2)cn1 [Compound 12, 4-((5-(4-bromophenyl)pyridin-2-yl)thio)-1H-1,2,3-triazole-5-carboxylic acid 2,2,2-trifluoroacetate] | 100 to 1000 nM
O=C(O)c1[nH]nnc1Sc1nnc(-c2ccc(Cl)c(Cl)c2)[nH]1 [Compound 13, 4-((5-(3,4-dichlorophenyl)-4H-1,2,4-triazol-3-yl)thio)-1H-1,2,3-triazole-5-carboxylic acid] | 100 to 1000 nM
COc1ccc(-c2ccc(Sc3nn[nH]c3C(=O)O)cc2)cc1 [Compound 14, 4-((4′-methoxy-[1,1′-biphenyl]-4-yl)thio)-1H-1,2,3-triazole-5-carboxylic acid] | < 100 nM
COc1ccc(-c2csc(Sc3nn[nH]c3C(=O)O)n2)cc1Cl [Compound 15, 4-((4-(3-chloro-4-methoxyphenyl)thiazol-2-yl)thio)-1H-1,2,3-triazole-5-carboxylic acid] | < 100 nM
O=C(O)c1[nH]nnc1Sc1ccc(-c2ccc(OC(F)(F)F)cc2)cc1 [Compound 16, 4-((4′-(trifluoromethoxy)-[1,1′-biphenyl]-4-yl)thio)-1H-1,2,3-triazole-5-carboxylic acid] | < 100 nM
COC(=O)c1[nH]nnc1Sc1nc(-c2ccc(Cl)c(Cl)c2)cs1 [Compound 17, methyl 4-((4-(3,4-dichlorophenyl)thiazol-2-yl)thio)-1H-1,2,3-triazole-5-carboxylate] | > 10000 nM
O=C(O)c1[nH]nnc1Sc1nc(-c2ccc(OC3CC3)c(Cl)c2)cs1 [Compound 18, 4-((4-(3-chloro-4-cyclopropoxyphenyl)thiazol-2-yl)thio)-1H-1,2,3-triazole-5-carboxylic acid] | < 100 nM
O=C(OC1CC1)c1[nH]nnc1Sc1nc(-c2ccc(Cl)c(Cl)c2)cs1 [Compound 19, cyclopropyl 4-((4-(3,4-dichlorophenyl)thiazol-2-yl)thio)-1H-1,2,3-triazole-5-carboxylate] | > 10000 nM

The next lines start with the values.

IC50 | SMILES
< 100 nM | O=C(O)c1[nH]nnc1Sc1cccc(-c2ccc(Cl)c(Cl)c2)n1 [Compound 20, 4-((6-(3,4-dichlorophenyl)pyridin-2-yl)thio)-1H-1,2,3-triazole-5-carboxylic acid]
< 100 nM | O=C(O)c1[nH]nnc1Sc1ccc(-c2ccc(Cl)c(Cl)c2)cc1 [Compound 21, 4-((3′,4′-dichloro-[1,1′-biphenyl]-4-yl)thio)-1H-1,2,3-triazole-5-carboxylic acid]
< 100 nM | O=C(O)c1[nH]nnc1Sc1ccc(-c2ccc(Cl)cc2Cl)cc1 [Compound 22, 4-((2′,4′-dichloro-[1,1′-biphenyl]-4-yl)thio)-1H-1,2,3-triazole-5-carboxylic acid]
< 100 nM | COc1cc(-c2nc(Sc3nn[nH]c3C(=O)O)cs2)ccc1Cl [Compound 23, 4-((2-(4-chloro-3-methoxyphenyl)thiazol-4-yl)thio)-1H-1,2,3-triazole-5-carboxylic acid]
< 100 nM | CC(C)Oc1cc(-c2nc(Sc3nn[nH]c3C(=O)O)cs2)ccc1Cl [Compound 24, 4-((2-(4-chloro-3-isopropoxyphenyl)thiazol-4-yl)thio)-1H-1,2,3-triazole-5-carboxylic acid]
> 10000 nM | COc1ccc(Cn2nnc(C(=O)O)c2Sc2csc(-c3ccc(OC)c(Cl)c3)n2)cc1 [Compound 25-1, 5-((2-(3-chloro-4-methoxyphenyl)thiazol-4-yl)thio)-1-(4-methoxybenzyl)-1H-1,2,3-triazole-4-carboxylic acid]
< 100 nM | COc1ccc(-c2nc(Sc3nn[nH]c3C(=O)O)cs2)cc1Cl [Compound 25-2, 4-((2-(3-chloro-4-methoxyphenyl)thiazol-4-yl)thio)-1H-1,2,3-triazole-5-carboxylic acid]
< 100 nM | O=C(O)c1[nH]nnc1Sc1csc(-c2ccc(Cl)cc2Cl)n1 [Compound 26, 4-((2-(2,4-dichlorophenyl)thiazol-4-yl)thio)-1H-1,2,3-triazole-5-carboxylic acid]
< 100 nM | CC(C)Oc1ccc(-c2nc(Sc3nn[nH]c3C(=O)O)cs2)cc1Cl [Compound 27, 4-((2-(3-chloro-4-isopropoxyphenyl)thiazol-4-yl)thio)-1H-1,2,3-triazole-5-carboxylic acid]
1000 to 10000 nM | Cn1c(Sc2nn[nH]c2C(=O)O)nnc1-c1ccc(Cl)c(Cl)c1 [Compound 28, 4-((5-(3,4-dichlorophenyl)-4-methyl-4H-1,2,4-triazol-3-yl)thio)-1H-1,2,3-triazole-5-carboxylic acid 2,2,2-trifluoroacetate]
100 to 1000 nM | CCOc1ccc2sc(Sc3nn[nH]c3C(=O)O)nc2c1 [Compound 29, 4-((5-ethoxybenzo[d]thiazol-2-yl)thio)-1H-1,2,3-triazole-5-carboxylic acid]
< 100 nM | O=C(O)c1[nH]nnc1Sc1ccc(-c2ccc(Cl)c(OC(F)(F)F)c2)cc1 [Compound 30, 4-((4′-chloro-3′-(trifluoromethoxy)-[1,1′-biphenyl]-4-yl)thio)-1H-1,2,3-triazole-5-carboxylic acid]
< 100 nM | O=C(O)c1[nH]nnc1Sc1ccc(-c2cccc(OC(F)(F)F)c2Cl)cc1 [Compound 31, 4-((2′-chloro-3′-(trifluoromethoxy)-[1,1′-biphenyl]-4-yl)thio)-1H-1,2,3-triazole-5-carboxylic acid]

Same assay, conditions: Table 4; read-out: Range (range of IC50 values calculated from the enzymatic assays)

IC50 | SMILES
< 100 nM | CCCC(O)(CC)Cn1ccc(-c2ccc([C@H]3CC[C@H](Oc4nn[nH]c4C(=O)O)CC3)cc2)n1 (relative stereo) [Example 458, 4-(((trans)-4-(4-(1-(2-ethyl-2-hydroxypentyl)-1H-pyrazol-3-yl)phenyl)cyclohexyl)oxy)-1H-1,2,3-triazole-5-carboxylic acid]
< 100 nM | CCCC(O)(CC)Cn1nccc1-c1ccc([C@H]2CC[C@H](Oc3nn[nH]c3C(=O)O)CC2)cc1 (relative stereo) [Example 470, 4-(((trans)-4-(4-(1-(2-ethyl-2-hydroxypentyl)-1H-pyrazol-5-yl)phenyl)cyclohexyl)oxy)-1H-1,2,3-triazole-5-carboxylic acid]
< 100 nM | CCC(Cc1cc(-c2ccc([C@H]3CC[C@H](Oc4nn[nH]c4C(=O)O)CC3)cc2)[nH]n1)OC (relative stereo) [Example 475, 4-(((trans)-4-(4-(3-(2-methoxybutyl)-1H-pyrazol-5-yl)phenyl)cyclohexyl)oxy)-1H-1,2,3-triazole-5-carboxylic acid]
< 100 nM | O=C(O)c1[nH]nnc1O[C@H]1CC[C@H](c2ccc(-c3ccnn3[C@H]3CCCC[C@@H]3O)cc2)CC1 (relative stereo) [Example 476, 4-(((trans)-4-(4-(1-((1S,2S)-2-hydroxycyclohexyl)-1H-pyrazol-5-yl)phenyl)cyclohexyl)oxy)-1H-1,2,3-triazole-5-carboxylic acid]
< 100 nM | O=C(O)c1[nH]nnc1O[C@H]1CC[C@H](c2ccc(OC[C@H]3CCC[C@H](CO)C3)cc2)CC1 (relative stereo) [Example 483, 4-(((trans)-4-(4-(((trans)-3-(hydroxymethyl)cyclohexyl)methoxy)phenyl)cyclohexyl)oxy)-1H-1,2,3-triazole-5-carboxylic acid]
